# Experimental data taken from paper PMC11246197 (Journal of medicinal chemistry, 2024).
# Where two headings read alike, the source gives them in different places.
# Legend:
# BEAS-2B cells = type: cell-based, human; settings: BNPP (CES1 inhibitor) up to 20 μM co-incubated with 10 μM ProTide
# [1] = Plasma PK after oral administration in Ces1c−/− mice; settings: 54.4 μmole/kg
# [2] = Prodrug hydrolysis in human intestine S9 fractions; type: in vitro ADME; settings: 15 min incubation
# [3] = Prodrug hydrolysis in human liver S9 fractions; type: in vitro ADME; settings: 15 min incubation
# [4] = target: T1, recombinant human CES1 (rhCES1) (Homo sapiens, UniProt P23141); test: Hydrolysis of ProTides by recombinant human CES1; type: biochemical; settings: 20 μM prodrug, 40 ng/μL rhCES1, 20 min, Tris buffer pH 7.5, 37 °C, n = 3
# T1 sequence (P23141 18-567): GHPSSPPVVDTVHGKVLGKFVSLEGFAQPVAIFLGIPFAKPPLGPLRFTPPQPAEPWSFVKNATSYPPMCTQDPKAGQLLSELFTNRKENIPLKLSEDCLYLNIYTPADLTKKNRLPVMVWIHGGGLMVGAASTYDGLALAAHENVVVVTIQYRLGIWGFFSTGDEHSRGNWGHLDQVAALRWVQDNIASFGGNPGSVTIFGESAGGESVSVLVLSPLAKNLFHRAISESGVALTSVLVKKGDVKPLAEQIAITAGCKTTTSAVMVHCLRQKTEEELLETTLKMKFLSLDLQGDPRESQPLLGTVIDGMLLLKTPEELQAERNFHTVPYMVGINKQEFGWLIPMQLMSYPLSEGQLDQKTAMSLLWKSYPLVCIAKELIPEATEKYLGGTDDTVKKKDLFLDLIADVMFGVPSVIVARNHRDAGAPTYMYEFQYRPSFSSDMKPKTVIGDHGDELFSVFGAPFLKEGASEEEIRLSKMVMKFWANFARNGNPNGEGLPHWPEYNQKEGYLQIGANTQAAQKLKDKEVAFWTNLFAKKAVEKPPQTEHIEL
# [5] = cited from earlier work
# [6] = target: recombinant human CatA (rhCatA) (Homo sapiens, UniProt P10619); test: Hydrolysis of ProTides by recombinant human CatA; type: biochemical; settings: 20 μM prodrug, 0.5 ng/μL rhCatA, 10 min, MES buffer pH 5.5, 37 °C, n = 3
# [7] = Plasma PK after IV administration; settings: for AUC(0-inf) / AUC(0-t) / Cmax / Vd / half-life / concentration at 15 min: male, mouse, plasma, iv; for AUC(0-inf) / AUC(0-t) / Cmax / Vd / half-life: Ces1c−/− (JAX stock # 014096)
# [8] = Ex vivo human plasma stability; settings: 10 μM, 37 °C, 4 hours
# [9] = cited from earlier work; remark: listed apart in the source
# [10] = test system: human bronchial epithelial cells; settings: within 48 hours after drug treatment; cited from earlier work
# [11] = male, Ces1c−/− (Ces1c knockout), in vivo, iv
# [12] = 24 h, 10 μM
# lung virus titers = settings: 2 days post infection, cited from earlier work
# iPSC-AT2 = settings: read-out: 50% cytotoxic concentration (CC50); cited from earlier work
# VeroE6 cells = settings: read-out: 50% cytotoxic concentration (CC50); cited from earlier work
# [13] = cited from earlier work; remark: listed apart in the source
# [14] = wild-type mice; cited from earlier work
# [15] = IV bolus, 54.4 μmole/kg, Ces1c−/− mice
# recombinant human CatA (rhCatA), sequence (P10619 327-480): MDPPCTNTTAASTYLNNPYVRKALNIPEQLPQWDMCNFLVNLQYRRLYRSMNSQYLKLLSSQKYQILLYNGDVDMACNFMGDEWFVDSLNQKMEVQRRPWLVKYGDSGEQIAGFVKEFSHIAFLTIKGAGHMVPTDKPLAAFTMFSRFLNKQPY
# recombinant human CatA (rhCatA), sequence (P10619 29-326): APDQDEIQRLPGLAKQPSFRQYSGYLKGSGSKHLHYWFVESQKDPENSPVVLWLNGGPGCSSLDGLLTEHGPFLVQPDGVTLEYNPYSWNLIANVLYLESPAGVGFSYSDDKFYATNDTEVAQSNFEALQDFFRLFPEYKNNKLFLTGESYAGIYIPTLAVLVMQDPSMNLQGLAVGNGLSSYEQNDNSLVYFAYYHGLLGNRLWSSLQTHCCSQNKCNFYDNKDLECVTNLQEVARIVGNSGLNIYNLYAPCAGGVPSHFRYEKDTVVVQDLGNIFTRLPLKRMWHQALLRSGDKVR
Structure (SMILES),Prodrug form in plasma after oral administration [1],Activity of rhCES1 for prodrug hydrolysis [4] [pmol/min/μg protein],Stability in human plasma [5] [min],Activity of rhCatA for prodrug hydrolysis [6],"CL/F of the administered compound [7, 15] [L⋅h^−1]",Hydrolyzed in human plasma [8],AUC(0-inf) ([7]; 54.4 μmole/kg) [µM·h],AUC(0-t) ([7]; 54.4 μmole/kg) [µM·h],Cmax ([7]; 54.4 μmole/kg) [µM],Vd ([7]; 54.4 μmole/kg) [L],half-life ([7]; 54.4 μmole/kg) [h],concentration at 15 min ([7]; 54.4 μmole/kg) [µM],also measured
"O=[N+]([O-])c1ccc(OP(=O)(O)Oc2ccc([N+](=O)[O-])cc2)cc1 [BNPP, Bis-(p-nitrophenyl) phosphate]",–,–,–,–,–,–,–,–,–,–,–,–,Effect of inhibitor on the formation of RDV-TP (BEAS-2B cells): did not significantly alter
CC(C)C(=O)OC[C@H]1O[C@@](C#N)(c2ccc3c(N)ncnn23)[C@H](OC(=O)C(C)C)[C@@H]1OC(=O)C(C)C [GS-621763],barely detected,–,–,–,–,–,–,–,–,–,–,–,Prodrug remaining in human intestine homogenate [2]: could barely be detected; Prodrug remaining in human liver homogenate [3]: could barely be detected
CC(C)OC(=O)[C@H](C)N[P@](=O)(OC[C@H]1O[C@@](C#N)(c2ccc3c(N)ncnn23)[C@H](O)[C@@H]1O)Oc1ccccc1 [IsoRDV],barely detected,7.7 ± 1.4,1561,236.7 ± 172.8 pmol/min/μg protein,0.28 ± 0.03,~15%,–,–,–,–,–,–,"AUC0-∞ of the administered compound in plasma [7, 15]: 4,950.3 ± 628.2 h⋅nM; Vd (apparent distribution volume) [7, 15]: 0.42 ± 0.17 L; t1/2 of the administered compound in plasma [7, 15]: 1.04 ± 0.33 h; AUC0-t of the administered compound in plasma ([7]; IV bolus, 54.4 μmole/kg, Ces1c−/− mice, AUC0-t(8h)): 4,941.6 ± 626.4 h⋅nM; Oral bioavailability (estimated) [1]: less than 2%; logD [9]: 1.1"
N#C[C@@]1(c2ccc3c(N)ncnn23)O[C@H](CO)[C@@H](O)[C@H]1O [Nuc],–,–,–,–,0.052 ± 0.002,–,26.3,25.1,18.1,0.47 ± 0.29,6.34 ± 4.01,18.1,"RDV-TP levels, fold lower than RDV [10]: at least 40 fold; RDV-TP concentrations in the mouse lung relative to estimated EC50/EC90 [11]: constantly below EC50; Reduction after incubation with human plasma [12]: 5%"
"CCC(CC)COC(=O)[C@H](C)N[P@](=O)(OC[C@H]1O[C@@](C#N)(c2ccc3c(N)ncnn23)[C@H](O)[C@@H]1O)Oc1ccccc1 [RDV, remdesivir]",barely detected,15.5 ± 1.8,69,"1,786.5 ± 179.2 pmol/min/μg protein",1.06 ± 0.44,approximately 70%,1.58,1.57,1.37,1.91 ± 0.94,1.25 ± 0.39,1.37,"Half-life in human plasma [5]: 1.15 h; Half-life in human plasma ex vivo [5]: 1.15 h; Effect on lung virus titers (lung virus titers; 25 mg/kg twice daily): significantly reduced the lung virus titers; Effect on lung virus titers (lung virus titers; 50 mg/kg single dose daily): could not; Presence in plasma 4 hours after IV administration [7, 15]: barely detectable; Portion of plasma RDV that disappeared ([7]; within 30 minutes after IV administration): about 90%; CC50 (iPSC-AT2): 32.7 µM; CC50 (VeroE6 cells): 101 µM; Plasma half-life in Ces1c−/− mice [13]: ~ 25 min; Plasma half-life in mice [14]: < 5 min"
